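Protocol summary: plate cells (96-well), add compound at 5 concentrations, incubate 48 h, interpolate endpoints linearly. At the TGI there is no net growth.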
Experiments:
Assay in all cases: growth of human tumour cells (NCI), 48 h
[1] = system: SK-OV-3 ovarian
[2] = system: T-47D breast
[3] = system: 786-0 renal
[4] = system: ACHN renal
[5] = system: HOP-62 NSCLC
[6] = system: A498 renal
[7] = system: SF-539 CNS
[8] = system: MALME-3M melanoma
[9] = system: K-562 leukemia
[10] = system: SR leukemia
[11] = system: RXF 393 renal
[12] = system: HT29 colon
[13] = system: SNB-75 CNS
[14] = system: SK-MEL-5 melanoma
[15] = system: U251 CNS
[16] = system: SN12C renal
[17] = system: EKVX NSCLC
[18] = system: BT-549 breast
[19] = system: MDA-MB-435
[20] = system: CCRF-CEM leukemia
[21] = system: OVCAR-5 ovarian
[22] = system: A549 NSCLC
[23] = system: MDA-MB-231 breast
[24] = system: UACC-62 melanoma
[25] = system: OVCAR-8 ovarian
[26] = system: OVCAR-3 ovarian
[27] = system: UO-31 renal
[28] = system: SW-620 colon
[29] = system: PC-3 prostate
[30] = system: IGROV1 ovarian
[31] = system: CAKI-1 renal
[32] = system: NCI-H460 lung
[33] = system: SK-MEL-2 melanoma
[34] = system: HL-60(TB) leukemia
[35] = system: TK-10 renal
[36] = system: MOLT-4 leukemia
[37] = system: SNB-19 CNS
[38] = system: UACC-257 melanoma
[39] = system: NCI/ADR-RES ovarian
[40] = system: SK-MEL-28 melanoma
[41] = system: MCF7 breast
[42] = system: COLO 205 colon
[43] = system: KM12 colon
[44] = system: HCT-116 colon
[45] = system: M14 melanoma
[46] = system: DU-145 prostate
[47] = system: SF-268 CNS
[48] = system: HCC-2998 colon
[49] = system: MDA-N
[50] = system: RPMI-8226 leukemia
[51] = system: HCT-15 colon
[52] = system: NCI-H23 lung
[53] = system: HOP-92 NSCLC
[54] = system: LOX IMVI melanoma
[55] = system: OVCAR-4 ovarian
[56] = system: SF-295 CNS

Measured: TGI

O=C1N[C@H]2c3c(Cl)sc(Cl)c3[C@@H](O)[C@H]2O1
not listed: [52] | [53] | [54] | [55] | [56]
> 100 µM: all other assays above

O=C(O)CCCn1nnc2c(=O)[nH][nH]c(=O)c21
not listed: [1] | [2] | [6] | [7] | [11] | [13] | [24] | [28] | [30] | [47]
> 100 µM: all other assays above

From PubChem BioAssay (NCI)
